Laboratory results taken from patent EP0601184A1, “FUSED PYRIDAZINE COMPOUND AND PHARMACEUTICAL USE THEREOF” (YOSHITOMI PHARMACEUTICAL INDUSTRIES, LTD., priority 1991, dated 1993).

Legend:
male ddY mice = assay: Acute toxicity; type: in vivo; details: 5 days
Description: Groups of 5 male ddY mice were used. […] Similarly, the mice were orally administered with 1000 mg/kg of the compound, but they survived for 5 days after the administration.

[1] = target: benzodiazepine (BZP) receptors; assay: Displacement ability for benzodiazepine receptor (tritiated diazepam binding, crude synaptosome fraction of cerebral cortex); parameters: species or system Wistar rats; details: displacement of tritiated diazepam (2 nM), 0°C, 20 minutes, rat cerebral cortex synaptosome fraction
Description: The test of specific binding to benzodiazepine (BZP) receptors was carried out according to the method described in Life Science, vol. 20, 2101 (1977).
The crude synaptosome fraction isolated from the cerebral cortex of male Wistar rats aged 9-10 weeks, was suspended in 50 mM Trishydrochloric acid buffer (pH 7.4) containing 120 mM sodium chloride and 5 mM potassium chloride. The suspension was used for the following experiment.
The test compound in several different concentrations and tritiated diazepam (in final concentration of 2 nM) were added to the synaptosomal suspension, and the mixture was incubated at 0°C for 20 minutes. The suspension was filtered with Whatman GF/B (Trademark) glassfiber filter. After the filter was washed with the above-mentioned buffer, the radio activity left on the filter was measured with a liquid scintillation counter.
The specific binding was determined by subtracting the binding in the presence of 10⁻⁶ M unlabelled diazepam from total binding.
The affinity for benzodiazepine receptors of the compound of the present invention is evaluated from its displacement ability for tritiated diazepam at its binding site, which is represented by Ki value (nM).

[2] = tested on: GABA-induced chloride current; type: cell-based, American bullfrogs; details: dorsal root ganglion neurons
Description: The test was carried out according to the method of Akaike et al. reported in Journal of Physiology (London), 379, 171 (1986) using sensory neurons isolated from dosal root ganglion of American bullfrogs. Neurons were voltage-clamped at a holding membrane potential of -50 mV with a single-electrode voltage-clamp system. Test compounds were applied by using a concentration-clamp technique. When the peak Cl⁻ current (ICl) elicited by 3 x 10⁻⁶ M GABA alone was presented as 1, the augumentive ICl of the test compounds in the presence of 3 x 10⁻⁶ M GABA was measured. The results were presented as relative ICl values in Table 1.

Ki [1] [nM] | Relative ICl [2] | Compound | survival after administration (male ddY mice; 300 mg/kg intraperitoneally, groups of 5 male ddY mice) | survival after administration (male ddY mice; 1000 mg/kg orally, male ddY mice)
 |  | O=C(c1ccccc1)c1cc2c(s1)CCC1CC(=O)N(c3ccc(Cl)cc3)N=C21 (stereo not shown) [Example 16, 8-benzoyl-2-(4-chlorophenyl)-4,4a,5,6-tetrahydrothieno[2,3-h]cinnolin-3(2H)-one] | all mice survived | survived
4.2 | 1.38 | CC(=O)c1cc2c(s1)CCCC1CC(=O)N(c3ccc(Cl)cc3)N=C21 (stereo not shown) [Example 18, 9-acetyl-2-(4-chlorophenyl)-2,4,4a,5,6,7-hexahydro-3H-thieno[2',3':6,7]cyclohepta[1,2-c]pyridazin-3-one] |  | 
